Laboratory results published in patent US20050197350A1, “Novel quinoline, tetrahydroquinazoline, and pyrimidine derivatives and methods of treatment related to the use thereof” (TAISHO PHARMACEUTICAL CO., LTD., priority 2003, published 2005).

Test system: MCH receptors
Assay: MCH receptor activity class (method not given)
Conditions: not given

class | Structure (SMILES)
1 | COc1cccc(C(=O)N[C@H]2CC[C@@H](Nc3ncc(C)c(N(C)C)n3)CC2)c1 [Example 2563, N-(cis-4-{[4-(dimethylamino)-5-methylpyrimidin-2-yl]amino}cyclohexyl)-3-methoxybenzamide]

Same assay, conditions: MCH receptor; class by percent of control at 10^-7 M or IC50

Structure (SMILES) | class
CCC(Oc1ccccc1)C(=O)N[C@H]1CC[C@@H](Nc2cc(N(C)C)c3ccccc3n2)CC1 (relative stereo) [compound 48, N-(cis-4-{[4-(dimethylamino)quinolin-2-yl]amino}cyclohexyl)-2-phenoxybutanamide] | 1 (Class 1: The value of percent of control at 10^−7 M was less than 40% or the value of IC50 was less than 50 nM.)
CN(C)c1nc(N[C@H]2CC[C@@H](NC(=S)Nc3cc(Br)ccc3Br)CC2)nc2c1CCCC2 [compound 2033] | 3 (Class 3 The value of percent of control at 10^−7 M was more than 60% or the value of IC50 was more than 200 nM.)
CN(C)c1cc(N[C@H]2CC[C@@H](NC(=O)c3cncc(Br)c3)CC2)nc2ccccc12 [compound 88] | 3 (Class 3 The value of percent of control at 10^−7 M was more than 60% or the value of IC50 was more than 200 nM.)
CN(C)c1cc(N[C@H]2CC[C@@H](NC(=O)c3ccc(F)c(C(F)(F)F)c3)CC2)nc2ccccc12 [compound 106, N-(cis-4-{[4-(dimethylamino)quinolin-2-yl]amino}cyclohexyl)-4-fluoro-3-(trifluoromethyl)benzamide] | 1 (Class 1: The value of percent of control at 10^−7 M was less than 40% or the value of IC50 was less than 50 nM.)
CN(C)c1nc(N[C@H]2CC[C@@H](NC(=O)NCCc3cccs3)CC2)nc2c1CCCC2 [compound 1914] | 3 (Class 3 The value of percent of control at 10^−7 M was more than 60% or the value of IC50 was more than 200 nM.)

Same assay, conditions: activity class per percent of control at 10^-7 M or IC50

Structure (SMILES) | class
CN(C)c1nc(N[C@H]2CC[C@@H](CNC(=O)Cc3ccc(F)cc3Cl)CC2)nc2c1CCCC2 [compound 1063] | 3 (Class 3 The value of percent of control at 10^−7 M was more than 60% or the value of IC50 was more than 200 nM.)

Same assay, conditions: class 1-3 by percent of control at 10^-7 M or IC50

Structure (SMILES) | class
CN(C)c1ccnc(N[C@H]2CC[C@@H](CNC(=O)c3ccc(C#N)cc3)CC2)n1 [compound 422] | 3 (Class 3 The value of percent of control at 10^−7 M was more than 60% or the value of IC50 was more than 200 nM.)

Same assay, conditions: class by percent of control at 10^-7 M or IC50

Structure (SMILES) | class
COc1cc(F)c(CNC[C@H]2CC[C@@H](Nc3nccc(N(C)C)n3)CC2)cc1OC [compound 1321] | 3 (Class 3 The value of percent of control at 10^−7 M was more than 60% or the value of IC50 was more than 200 nM.)
CN(C)c1nc(N[C@H]2CC[C@@H](NCc3ccc(F)c(Cl)c3)CC2)nc2c1CCCC2 [compound 1363] | 3 (Class 3 The value of percent of control at 10^−7 M was more than 60% or the value of IC50 was more than 200 nM.)
Cc1ccccc1CNC(=O)N[C@H]1CC[C@@H](Nc2cc(N(C)C)c3ccccc3n2)CC1 [compound 2146] | 3 (Class 3 The value of percent of control at 10^−7 M was more than 60% or the value of IC50 was more than 200 nM.)
CN(C)c1ccnc(N[C@H]2CC[C@@H](NC(=O)NCc3ccccc3F)CC2)n1 [compound 2233] | 3 (Class 3 The value of percent of control at 10^−7 M was more than 60% or the value of IC50 was more than 200 nM.)
CN(C)c1nc(N[C@H]2CC[C@@H](CNC(=O)OCc3ccc([N+](=O)[O-])cc3)CC2)nc2c1CCCC2 [compound 618] | 3 (Class 3 The value of percent of control at 10^−7 M was more than 60% or the value of IC50 was more than 200 nM.)
CN(C)c1ccnc(N[C@H]2CC[C@@H](NC(=O)NC3C[C@H]3c3ccccc3)CC2)n1 (stereo partly drawn) [compound 2221] | 3 (Class 3 The value of percent of control at 10^−7 M was more than 60% or the value of IC50 was more than 200 nM.)
CN(C)c1cc(N[C@H]2CC[C@@H](NC(=O)c3ccnc4ccccc34)CC2)nc2ccccc12 [compound 785] | 3 (Class 3 The value of percent of control at 10^−7 M was more than 60% or the value of IC50 was more than 200 nM.)
CN(C)c1nc(N[C@H]2CC[C@@H](CNC(=O)c3ccc(C#N)cc3)CC2)nc2c1CCCC2 [compound 639] | 3 (Class 3 The value of percent of control at 10^−7 M was more than 60% or the value of IC50 was more than 200 nM.)
COc1ccc2c(c1)C(CC(=O)N[C@H]1CC[C@@H](Nc3nccc(N(C)C)n3)CC1)CC2=O (relative stereo) [compound 852] | 3 (Class 3 The value of percent of control at 10^−7 M was more than 60% or the value of IC50 was more than 200 nM.)
CN(C)c1cc(N[C@H]2CC[C@@H](NC(=O)CCCc3ccc([N+](=O)[O-])cc3)CC2)nc2ccccc12 [compound 725] | 3 (Class 3 The value of percent of control at 10^−7 M was more than 60% or the value of IC50 was more than 200 nM.)
CCCCCNC(=O)N[C@H]1CC[C@@H](Nc2nccc(N(C)C)n2)CC1 [compound 2223] | 3 (Class 3 The value of percent of control at 10^−7 M was more than 60% or the value of IC50 was more than 200 nM.)
Cc1cc(NC(=O)NC[C@H]2CC[C@@H](Nc3nc4c(c(N(C)C)n3)CCCC4)CC2)c(C(F)(F)F)o1 [compound 2484] | 3 (Class 3 The value of percent of control at 10^−7 M was more than 60% or the value of IC50 was more than 200 nM.)
COc1cccc(CNC[C@H]2CC[C@@H](Nc3nc4c(c(N(C)C)n3)CCCC4)CC2)c1O [compound 1438] | 3 (Class 3 The value of percent of control at 10^−7 M was more than 60% or the value of IC50 was more than 200 nM.)

Same assay, conditions: class by percent of control at 10^−7 M or IC50

Structure (SMILES) | class
Cc1nc(N[C@H]2CC[C@@H](NC(=O)c3ccc(C(F)(F)F)cc3)CC2)nc(N(C)C)c1C [compound 2850, N-(cis-4-{[4-(dimethylamino)-5,6-dimethylpyrimidin-2-yl]amino}cyclohexyl)-4-(trifluoromethyl)benzamide] | 1 (Class 1: The value of percent of control at 10^−7 M was less than 40% or the value of IC50 was less than 50 nM.)
COc1ccc(C(=O)N[C@H]2CC[C@@H](Nc3nc(C)c(C)c(N(C)C)n3)CC2)c(OC)n1 [compound 2832, N-(cis-4-{[4-(dimethylamino)-5,6-dimethylpyrimidin-2-yl]amino}cyclohexyl)-2,6-dimethoxynicotinamide] | 1 (Class 1: The value of percent of control at 10^−7 M was less than 40% or the value of IC50 was less than 50 nM.)
Cc1cnc(NC[C@H]2CC[C@@H](NC(=O)c3ccccc3)CC2)nc1N(C)C [compound 2712, N-[cis-4-({[4-(dimethylamino)-5-methylpyrimidin-2-yl]amino}methyl)cyclohexyl]benzamide] | 3 (Class 3 The value of percent of control at 10^−7 M was more than 60% or the value of IC50 was more than 200 nM.)
Cc1cc(N(C)C)nc(NC[C@H]2CC[C@@H](NC(=O)c3cccc(OC(F)(F)F)c3)CC2)n1 [compound 2741] | 3 (Class 3 The value of percent of control at 10^−7 M was more than 60% or the value of IC50 was more than 200 nM.)
Cc1cnc(N[C@H]2CC[C@@H](CNC(=O)c3cccnc3Oc3cccc(F)c3)C2)nc1N(C)C [compound 3017] | 3 (Class 3 The value of percent of control at 10^−7 M was more than 60% or the value of IC50 was more than 200 nM.)
CCc1ccc(C(=O)N[C@H]2CC[C@@H](Nc3nc(C)cc(N(C)C)n3)CC2)cc1 [compound 2974, N-(cis-4-{[4-(dimethylamino)-6-methylpyrimidin-2-yl]amino}cyclohexyl)-4-ethylbenzamide] | 2 (Class 2: The value of percent of control at 10^−7 M was from 40% to 60% or the value of IC′50 was from 50 nM to 200 nM.)
